From ChEMBL document CHEMBL5108016, “Design, synthesis and neurite outgrowth activity of novel ganglioside GM1 derivatives by remodeling of the fatty acid moiety” (Eur J Med Chem, 2022)
Activity calls are given as the source filed them. The rule behind the calls is not given here.

Assays:
[1] = Cytotoxicity against mouse Neuro2a cells assessed as inhibition of cell growth incubated for 24 hrs by MTT assay; assay type: toxicity, cell-based, N2a
N2a [2] = test: Induction of neurite outgrowth in mouse Neuro2a cells assessed as increase in GAP43 protein expression at 25 uM incubated for 24 hrs by immunoblotting analysis; assay type: functional, cell-based
Cortical neurone [3] = test: Induction of neurite outgrowth in C57BL/6 mouse Primary cortical neuron assessed as increase in total neurite length at 25 uM incubated for 24 hrs (reference value: 58.3 +/- 8.68 […]); assay type: functional
Cortical neurone [4] = test: Induction of neurite outgrowth in C57BL/6 mouse Primary cortical neuron assessed as change in neurite number per cell at 25 uM incubated for 24 hrs; assay type: functional, cell-based
N2a [5] = test: Upregulation of LSS gene expression in mouse Neuro2a cells by STRING analysis; assay type: functional, cell-based
N2a [6] = test: Upregulation of HMGCS1 gene expression in mouse Neuro2a cells by STRING analysis; assay type: functional, cell-based
N2a [7] = test: Upregulation of MVD gene expression in mouse Neuro2a cells by STRING analysis; assay type: functional, cell-based
N2a [8] = test: Upregulation of NSDHL gene expression in mouse Neuro2a cells by STRING analysis; assay type: functional, cell-based
N2a [9] = test: Upregulation of FDFT1 gene expression in mouse Neuro2a cells by STRING analysis; assay type: functional, cell-based
N2a [10] = test: Upregulation of ACAT2 gene expression in mouse Neuro2a cells by STRING analysis; assay type: functional, cell-based
N2a [11] = test: Upregulation of FDPS gene expression in mouse Neuro2a cells by STRING analysis; assay type: functional, cell-based
N2a [12] = test: Upregulation of CYP51 gene expression in mouse Neuro2a cells by STRING analysis; assay type: functional, cell-based
N2a [13] = test: Upregulation of SREBP2 gene expression in mouse Neuro2a cells by STRING analysis; assay type: functional, cell-based
N2a [14] = test: Upregulation of SREBP2 mRNA expression in mouse Neuro2a cells by qRT-PCR analysis; assay type: functional, cell-based
N2a [15] = test: Upregulation of FDF1 mRNA expression in mouse Neuro2a cells by qRT-PCR analysis; assay type: functional, cell-based
N2a [16] = test: Upregulation of DHCR7 mRNA expression in mouse Neuro2a cells by qRT-PCR analysis; assay type: functional, cell-based
N2a [17] = test: Upregulation of CYP51 mRNA expression in mouse Neuro2a cells by qRT-PCR analysis; assay type: functional, cell-based
N2a [18] = test: Upregulation of MVK mRNA expression in mouse Neuro2a cells by qRT-PCR analysis; assay type: functional, cell-based
N2a [19] = test: Upregulation of HMGCS mRNA expression in mouse Neuro2a cells by qRT-PCR analysis; assay type: functional, cell-based
N2a [20] = test: Upregulation of HMGCR mRNA expression in mouse Neuro2a cells by qRT-PCR analysis; assay type: functional, cell-based
N2a [21] = test: Upregulation of FDPS mRNA expression in mouse Neuro2a cells by qRT-PCR analysis; assay type: functional, cell-based
N2a [22] = test: Upregulation of NSDHL mRNA expression in mouse Neuro2a cells by qRT-PCR analysis; assay type: functional, cell-based
N2a [23] = test: Upregulation of MVD mRNA expression in mouse Neuro2a cells by qRT-PCR analysis; assay type: functional, cell-based
N2a [24] = test: Upregulation of LSS mRNA expression in mouse Neuro2a cells by qRT-PCR analysis; assay type: functional, cell-based
N2a [25] = test: Upregulation of ID11 mRNA expression in mouse Neuro2a cells by qRT-PCR analysis; assay type: functional, cell-based
N2a [26] = test: Upregulation of SQLE mRNA expression in mouse Neuro2a cells by qRT-PCR analysis; assay type: functional, cell-based
N2a [27] = test: Upregulation of PMVK mRNA expression in mouse Neuro2a cells by qRT-PCR analysis; assay type: functional, cell-based
N2a [28] = test: Upregulation of DHCR7 protein expression in mouse Neuro2a cells by parallel reaction monitoring analysis; assay type: functional, cell-based
N2a [29] = test: Upregulation of HMGCR protein expression in mouse Neuro2a cells by parallel reaction monitoring analysis; assay type: functional, cell-based
N2a [30] = test: Upregulation of NSDHL protein expression in mouse Neuro2a cells by parallel reaction monitoring analysis; assay type: functional, cell-based
N2a [31] = test: Upregulation of CYP51 protein expression in mouse Neuro2a cells by parallel reaction monitoring analysis; assay type: functional, cell-based
N2a [32] = test: Upregulation of FDPS protein expression in mouse Neuro2a cells by parallel reaction monitoring analysis; assay type: functional, cell-based
N2a [33] = test: Upregulation of LSS protein expression in mouse Neuro2a cells by parallel reaction monitoring analysis; assay type: functional, cell-based
N2a [34] = test: Upregulation of HMGCS1 protein expression in mouse Neuro2a cells by parallel reaction monitoring analysis; assay type: functional, cell-based
N2a [35] = test: Induction of cholesterol biosynthesis in mouse Neuro2a cells assessed as increase in total cholesterol level; assay type: functional, cell-based
N2a [36] = test: Induction of cholesterol biosynthesis in mouse Neuro2a cells assessed as increase in total cholesteryl level; assay type: functional, cell-based
[37] = target: T1, Sterol regulatory element-binding protein 2 (Mus musculus) (UniProt Q3U1N2); test: Activation of SREBP2 in mouse Neuro2a cells assessed as increase in mTOR protein expression by immunoblot analysis; assay type: cell-based; conditions: filed as activator
T1 sequence (whole entry): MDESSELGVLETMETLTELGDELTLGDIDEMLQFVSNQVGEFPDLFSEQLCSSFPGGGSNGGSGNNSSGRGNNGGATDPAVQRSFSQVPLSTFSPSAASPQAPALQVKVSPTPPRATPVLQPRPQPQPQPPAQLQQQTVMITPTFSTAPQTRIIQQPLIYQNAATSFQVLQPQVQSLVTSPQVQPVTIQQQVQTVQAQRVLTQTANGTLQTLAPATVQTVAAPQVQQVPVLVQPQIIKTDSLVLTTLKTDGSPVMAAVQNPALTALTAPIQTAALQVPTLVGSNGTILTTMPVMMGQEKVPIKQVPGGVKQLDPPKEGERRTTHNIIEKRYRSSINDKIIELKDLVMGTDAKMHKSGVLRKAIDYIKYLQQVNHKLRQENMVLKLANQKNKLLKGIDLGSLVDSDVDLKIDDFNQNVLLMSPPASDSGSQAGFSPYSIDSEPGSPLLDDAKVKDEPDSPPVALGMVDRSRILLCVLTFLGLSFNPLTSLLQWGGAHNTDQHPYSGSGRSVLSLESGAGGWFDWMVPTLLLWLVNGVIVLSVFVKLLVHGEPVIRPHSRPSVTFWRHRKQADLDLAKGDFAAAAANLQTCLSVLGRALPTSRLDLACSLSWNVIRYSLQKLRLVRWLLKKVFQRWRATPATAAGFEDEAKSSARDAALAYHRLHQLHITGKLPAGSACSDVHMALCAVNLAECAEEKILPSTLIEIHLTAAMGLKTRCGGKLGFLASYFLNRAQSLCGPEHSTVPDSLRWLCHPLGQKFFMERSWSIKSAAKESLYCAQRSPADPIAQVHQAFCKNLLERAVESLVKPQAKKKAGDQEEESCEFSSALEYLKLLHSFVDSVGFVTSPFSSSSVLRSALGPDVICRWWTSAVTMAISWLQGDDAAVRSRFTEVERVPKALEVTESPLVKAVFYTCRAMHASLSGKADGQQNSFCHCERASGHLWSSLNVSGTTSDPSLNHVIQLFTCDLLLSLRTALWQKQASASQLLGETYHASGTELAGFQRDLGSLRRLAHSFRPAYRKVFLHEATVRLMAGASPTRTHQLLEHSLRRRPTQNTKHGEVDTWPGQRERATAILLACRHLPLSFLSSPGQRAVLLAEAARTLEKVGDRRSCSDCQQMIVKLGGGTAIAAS

[38] = target: T1, Sterol regulatory element-binding protein 2 (Mus musculus); test: Activation of SREBP2 in mouse Neuro2a cells assessed as increase in ERBB4 protein expression by immunoblot analysis; assay type: cell-based; conditions: filed as activator
[39] = target: T1, Sterol regulatory element-binding protein 2 (Mus musculus); test: Activation of SREBP2 in mouse Neuro2a cells assessed as increase in phosphorylated ERBB4 protein expression by immunoblot analysis; assay type: cell-based; conditions: filed as activator
N2a [40] = test: Internalization of ERBB4 in mouse Neuro2a cells assessed as retention of ERBB4 level in lipids raft of cells by immunoblot analysis; assay type: functional, cell-based
N2a [41] = test: Upregulation of phosphorylated TrkA expression in mouse Neuro2a cells by immunoblot analysis; assay type: functional, cell-based

CCCCCCCCCCCCC/C=C/[C@@H](O)[C@H](CO[C@@H]1O[C@H](CO)[C@@H](O[C@@H]2O[C@H](CO)[C@H](O[C@@H]3O[C@H](CO)[C@H](O)[C@H](O[C@@H]4O[C@H](CO)[C@H](O)[C@H](O)[C@H]4O)[C@H]3NC(C)=O)[C@H](O[C@]3(C(=O)O)C[C@H](O)[C@@H](NC(C)=O)[C@@H]([C@@H](O)[C@H](O)CO)O3)[C@H]2O)[C@H](O)[C@H]1O)NC(=O)CCCCCCCCCCCCCCCCC
IC50 at 24 h [1]: > 200 µM
Activity (N2a [2]): Active
Activity (Cortical neurone [3]): 80.1 um
Activity (Cortical neurone [4]): Active
Activity (N2a [5]): Active
Activity (N2a [6]): Active
Activity (N2a [7]): Active
Activity (N2a [8]): Active
Activity (N2a [9]): Active
Activity (N2a [10]): Active
Activity (N2a [11]): Active
Activity (N2a [12]): Active
Activity (N2a [13]): Active
Activity (N2a [14]): Active
Activity (N2a [15]): Active
Activity (N2a [16]): Active
Activity (N2a [17]): Active
Activity (N2a [18]): Active
Activity (N2a [19]): Active
Activity (N2a [20]): Active
Activity (N2a [21]): Active
Activity (N2a [22]): Active
Activity (N2a [23]): Active
Activity (N2a [24]): Active
Activity (N2a [25]): Active
Activity (N2a [26]): Active
Activity (N2a [27]): Active
Activity (N2a [28]): Active
Activity (N2a [29]): Active
Activity (N2a [30]): Active
Activity (N2a [31]): Active
Activity (N2a [32]): Active
Activity (N2a [33]): Active
Activity (N2a [34]): Active
Activity (N2a [35]): Active
Activity (N2a [36]): Active
Activity [37]: Active
Activity [38]: Active
Activity [39]: Active
Activity (N2a [40]): Active
Activity (N2a [41]): Active
